Assay [1] concerns histamine release from human leukocytes (basophils). In words: Human basophil assay: inhibition of anti-IgE-induced (IgE-mediated) histamine release. Conditions: for IC50: Leukocyte; for inhibition of histamine release in human basophils (in words): IgE-mediated, in vitro. Format: cell-based. As for the experimental part: In the experiments reported by this example compounds in accordance with the invention are evaluated to determine their ability to inhibit the IgE-mediated release of histamine from sensitized peripheral leucocytes (basophils). Separation of leukocytes is accomplished by a modification of the method of L. Lichtenstein and A. Osler, J. Exp. Med. 120: 507 (1964). Heparinized human blood (80-100 ml) is mixed with 20 ml of saline (0.2%) containing 0.6 g of dextrose and 1.2 g of dextran in propylene centrifuge tubes. The mixture is kept at ambient temperature for 60-90 minutes to allow the separation of erythrocytes from the platelet-leukocyte-rich supernate. The supernate is removed and centrifuged for 8 minutes at 10×g in the cold. The leukocyte pellet is washed twice with Tris buffer and finally suspended in 150-180 ml Tris-ACM buffer at 1-2×10^6 cells/ml. The reaction is carried out in 12×75 mm plastic tubes at a total volume of […]. The reaction medium includes 0.05 ml rabbit anti-human IgE, 0.2 ml of the test compound in Tris-ACM buffer at concentrations ranging from 10-1000 μM, and 1.0 ml of the leukocyte suspension. The reaction mixture is incubated in a 37° C. shaking water bath for 60 minutes. Upon completion of the reaction, the tubes are centrifuged and the supernatants collected. The protein is removed from the supernatants by precipitation with 0.2 ml of 8% perchloric acid. Histamine release is measured by the automated fluorometric method of W Siraganian and W. Hook in Chapter 108, pages 808-821 of the Manual of Clinical Immunology, 2nd Edition, edited by R. Rose and H. Friedman, published by the American Society for Microbiology, Washington, D.C., 1980. Percent inhibition is calculated as follows: [formula] The concentration which causes a 50 percent inhibition (1C50) of histamine release is interpolated from a plot of percent inhibition versus the logarithm of drug concentration.

Assay [2] concerns histamine release from basophils activated by ionophore A-23187. In words: Human basophil assay: inhibition of histamine release induced by non-immunological ionophore A-23187. Format: cell-based. The following applies: 1000-fold test dosage range. Here is the method:
Separation of leukocytes is accomplished by a modification of the method of L. Lichtenstein and A. Osler, J. Exp. Med. 120: 507 (1964). Heparinized human blood (80-100 ml) is mixed with 20 ml of saline (0.2%) containing 0.6 g of dextrose and 1.2 g of dextran in propylene centrifuge tubes. The mixture is kept at ambient temperature for 60-90 minutes to allow the separation of erythrocytes from the platelet-leukocyte-rich supernate. The supernate is removed and centrifuged for 8 minutes at 10×g in the cold. The leukocyte pellet is washed twice with Tris buffer and finally suspended in 150-180 ml Tris-ACM buffer at 1-2×10^6 cells/ml.
The reaction is carried out in 12×75 mm plastic tubes at a total volume of 1.23 ml. […] The reaction mixture is incubated in a 37° C. shaking water bath for 60 minutes. Upon completion of the reaction, the tubes are centrifuged and the supernatants collected. The protein is removed from the supernatants by precipitation with 0.2 ml of 8% perchloric acid.
Histamine release is measured by the automated fluorometric method of W Siraganian and W. Hook in Chapter 108, pages 808-821 of the Manual of Clinical Immunology, 2nd Edition, edited by R. Rose and H. Friedman, published by the American Society for Microbiology, Washington, D.C., 1980. Percent inhibition is calculated as follows: [formula] […]

For a further assay, the system named is lipoxygenase pathway. In words: Blocking the metabolic conversion of arachidonic acid in the lipoxygenase pathway. Conditions: no method or data given.
Setting [3] is: 1 h, human basophils, rabbit anti-human IgE, 37° C., 60 minutes, read-out: IN VITRO INHIBITION OF HISTAMINE RELEASE IC50.

Structures can show the parent of a compound that is named as a salt. Where two headings read alike, the source gives them in different places.

Regarding `Clc1ccc(CN2CCN(CCCSSCCCN3CCN(Cc4ccc(Cl)cc4)CC3)CC2)cc1` [Example 1, 1,1'-(Dithiodi-3,1-propanediyl)bis[4-(4-chlorobenzyl)piperazine]], the concentration for half-maximal inhibition (IC50) (as a rule, the concentration at which inhibition is half-maximal) in assay [1] (setting [3]) was 2 µM.
Regarding `Clc1ccc(CN2CCN(CCSSCCN3CCN(Cc4ccc(Cl)cc4)CC3)CC2)cc1` [Example 2, 1,1'-(dithiodi-2,1-ethanediyl)bis[4-(4-chlorobenzyl)piperazine]tetrahydrochloride], the IC50 was 5.29 µM in assay [1] (Homo sapiens, anti-IgE, further repetition of testing, read-out: IC50 (histamine release), further repetition); 3.7 µM in assay [1] (Homo sapiens, anti-IgE, range of concentrations up to the limits of its solubility, read-out: IC50 (histamine release)); 2.4 µM in assay [1] (setting [3]); 2.67 µM in assay [2]. The “blocking the metabolic conversion of arachidonic acid in the lipoxygenase pathway (in words)” value in the assay with lipoxygenase pathway was “effective in blocking”.
With `Cc1ccccc1CN1CCN(CCSSCCN2CCN(Cc3ccccc3C)CC2)CC1` [Example 3, 1,1'-(dithiodi-2,1-ethanediyl)bis[4-(2-methylbenzyl)piperazine]tetrahydrochloride], the IC50 in assay [1] (setting [3]) amounted to 15 µM.
The same measure, in the same setting: to `Clc1ccc(CN2CCN(CCCSCCN3CCN(Cc4ccc(Cl)cc4)CC3)CC2)cc1` [Example 4, {2-[4-(4-chlorobenzyl)piperazin-1-yl)ethyl}{3-[4-(4-chlorobenzyl)piperazin-1-yl]propyl}sulfide tetrahydrochloride] belongs 2.4 µM; to `Clc1ccc(CN2CCN(CCCSCCCN3CCN(Cc4ccc(Cl)cc4)CC3)CC2)cc1` [Example 5, 1,1'-(thio-3,1-propanediyl) bis-[4-(4-chlorobenzyl)piperazine] tetrahydrochloride], 1.9 µM; to `[O-][S+](CCCN1CCN(Cc2ccc(Cl)cc2)CC1)CCCN1CCN(Cc2ccc(Cl)cc2)CC1` [Example 6, 1,1'-(sulfinyl-3,1-propanediyl) bis[4-(4-chlorobenzyl)piperazine] tetrahydrochloride], 5.6 µM.
On the same count and under the same terms, the same measure for `O=S(=O)(CCCN1CCN(Cc2ccc(Cl)cc2)CC1)CCCN1CCN(Cc2ccc(Cl)cc2)CC1` [Example 7, 1,1'-(sulfonyl-3,1-propanediyl) bis[4-(4-chlorobenzyl)piperazine] tetrahydrochloride]: 3.4 µM; for `N#Cc1ccc(CN2CCN(CCSSCCN3CCN(Cc4ccc(C#N)cc4)CC3)CC2)cc1` [Example 8, 1,1'-(dithiodi-2,1-ethanediyl)bis[4-(4-cyanobenzyl)piperazine] tetrahydrochloride]: 28 µM; for `c1ccc(CN2CCN(CCCSSCCCN3CCN(Cc4ccccc4)CC3)CC2)cc1` [Example 9, 1,1'-(dithiodi-3,1-propanediyl)bis(4-benzylpiperazine) tetrahydrochloride]: 13.7 µM.
`Cl.Cl.Cl.Cl.Clc1ccc(CCN2CCN(CCCSSCCCN3CCN(CCc4ccc(Cl)cc4)CC3)CC2)cc1` [Example 10, 1,1'-(dithiodi-3,1-propanediyl)-bis [4-(4-chlorophenethyl)piperazine] tetrahydrochloride]: the “inhibition of histamine release in human basophils (in words)” value in assay [1] is reported as “absence of observed activity”. The IC50 in assay [1] (setting [3]) was greater than 1000 µM.
For `Clc1ccc(CN2CCCN(CCCSSCCCN3CCCN(Cc4ccc(Cl)cc4)CC3)CC2)cc1` [Example 11, 1,1'-(dithiodi-3,1-propanediyl)bis[4-(4-chlorobenzyl)homopiperizine] tetrahydrochloride] the same measures were “absence of observed activity” and greater than 1000 µM.
On to `Cc1ccc(CN2CCN(CCSSCCN3CCN(Cc4ccc(C)cc4)CC3)CC2)cc1` [Example 12, 1,1'-(dithiodi-2,1-ethanediyl)bis[4-(4-methylbenzyl)piperazine] tetrahydrochloride], for which the 50% inhibitory concentration (IC50) in assay [1] (setting [3]) amounted to 4.7 µM.
`Cl.Cl.Cl.Cl.Clc1ccc(CCCN2CCN(CCSSCCN3CCN(CCCc4ccc(Cl)cc4)CC3)CC2)cc1` [Example 13, 1,1'-(dithiodi-2,1-ethanediyl)bis{4-[3-(4-chlorophenyl)propyl]piperazine} tetrahydrochloride]: the “inhibition of histamine release in human basophils (in words)” value in assay [1] is recorded as “absence of observed activity”. Besides, in assay [1] (setting [3]), the IC50 was greater than 1000 µM.

For the origin of these results see patent US4692448A, “Bis(arylpiperazinyl)sulfur compounds” (Boehringer Ingelheim Pharmaceuticals, Inc., priority 1984, dated 1987).
